2 compounds from US8921567B2, “Process for preparing N-substituted 1H-pyrazole-5-carbonylchloride compounds” (BASF SE, priority 2011, dated 2014) can be followed below.

The data set in a line: log P determination via capillary electrophorese on a cePro9600 from CombiSep. Type of data set: physicochemical. Particulars: pH = 10.0. On the procedure:
log P determinations were performed via capillary electrophorese on a cePro9600™ from CombiSep.

For the compound `Cc1cccc(C(=O)N=S2CCSC2)c1NC(=O)c1cc(C(F)(F)F)nn1-c1ncccc1Cl` (centres unmarked) [Example 208], the logP result is “logP: 2.2 [pH = 10.0];”.
Turning to `Cc1cc(Cl)cc(C(=O)N=S(C(C)C)C(C)C)c1NC(=O)c1cc(C(F)(F)F)nn1-c1ncccc1Cl` [compound 24], the logP entry is “logP: 3.3 [pH = 10.0];”.
